For the data set the following is noted: method of Shin Jikken Kagaku Koza, Kihon Sosa 1.

Turning to `C=Cc1ccccc1` [styrene], the “solubility in water at 25°C” value came to 0.03 % by weight.

In the case of `C=C(C)C(=O)OCCCC` [butyl methacrylate], the “solubility in water at 25°C” value is 0.03 % by weight.

(Values after EP0615158A1, “A silver halide photographic light-sensitive material” (KONICA CORPORATION, priority 1993, dated 1994).)
